Measured values as given in US20250339443A1, “METHOD FOR TREATING OR PREVENTING CALCIUM RELEASE-ACTIVATED CALCIUM CHANNEL OR DISCOIDIN DOMAIN RECEPTOR 2 RELATED DISORDERS OR CONDITIONS” (LumiSTAR Biotechnology, Inc., priority 2023, published 2025).

Key:
Assay type in all cases: cell-based
CRAC channel [1] = molecular target: T1, CRAC channel (Homo sapiens, UniProt Q96D31); experiment: CRAC channel activity / SOCE in HCF; parameters: endogenous in cells; conditions: 10 μM pretreatment 45 min
Description: Cells were co-treated with various compounds (10 μM) and TGF-β1 for 24 hours. Following this, cell lysates were harvested, and the protein expression was assessed by Western blot analysis. FIG. 3D depicts the examination of TGF-β1-induced fibronectin deposition and α-SMA expression in HCF treated with 10 μM of DMSO, BTP2, WRG-28, or Av through immunofluorescence staining. The images were captured using a confocal microscope, the Olympus FV-1000. FIG. 3E, FIG. 3F, and FIG. 3G illustrate the assessment of CRAC channel activity in HCF, MRC5, and rat HSC-T6. These cells were pretreated with 10 μM of BTP2, WRG-28, or Av for 45 min. The evaluation included measuring the second peak of each calcium wave and the rate of entry. Each bar within the figure represents the mean value derived from 77 to 91 cells for HCF, 31 to 49 cells for MRC5, and 43 to 94 cells for HSC-T6. In all the graphs, *, **, and *** denote p-values of <0.05, 0.01, and 0.001, respectively.
(§1) Cells cultured on a glass-bottom 96 well plate for 48 hours were treated with different compounds (10 μM) and Fura 2-AM (1 μM) simultaneously in a solution containing 145 mM NaCl, 2.8 mM KCl, 2 mM CaCl2, 2 mM MgCl2, 10 mM D-glucose, 10 mM HEPES, pH 7.4 for 40 minutes in the dark. […] All the images were analyzed by using IGOR Pro software. […]

CRAC channel [2] = molecular target: T1, CRAC channel; experiment: CRAC channel activity / SOCE by Fura 2-AM cytosolic Ca2+ imaging in HEK293T cells; parameters: endogenous in cells; host or cells: HEK293T; conditions: 10 μM, 1 μM thapsigargin then 2 mM Ca2+
Description: CRAC channel activity was evaluated by applying 1 μM thapsigargin (Thap.) in a calcium-free solution to deplete the endoplasmic reticulum calcium store, followed by the reintroduction of 2 mM Ca^2+ in an external solution. The concentration of cytosolic calcium ions increases as calcium flows through the CRAC channel, leading to the second peak in cytosolic calcium waves. […] Each bar represents the mean value derived from 47 to 103 cells. […] Each bar represents the mean value derived from 83 to 176 cells. […] Further analyses are presented in FIG. 1I and FIG. 1J, where the second peak of each wave and rate of entry were analyzed. Each bar represents the mean value derived from 72 to 108 cells. […] In all the graphs, each bar represents mean±SEM and *, **, and *** denote p-value <0.05, 0.01, and 0.001, respectively.
Cells were then washed and incubated with the same solution in addition to the supplement of Fura 2-AM for another 15 minutes for fully de-esterification. […] 1 μM thapsigargin was added to induce endoplasmic reticulum (ER) calcium store depletion followed by applying 2 mM calcium solution to assess the activation of calcium release-activated calcium (CRAC) channels. Cells were alternately excited at 340 and 380 nm, and images were acquired every 2 seconds. […] All the images were analyzed by using IGOR Pro software. […]

CRAC channel [3] = molecular target: T1, CRAC channel; experiment: SOCE in macrophages; parameters: endogenous in cells; host or cells: HEK293T; conditions: 10 μM
Description: The effects of BTP2, WRG-28, Av, and CM-4620 on SOCE were evaluated in T cells (FIG. 4A) and macrophages (FIG. 4E). Cells were cultured on glass-bottom 96-well plates and pretreated with various compounds (10 μM) while being loaded with Fura 2-AM. Subsequently, the cytosolic calcium signal waves were recorded, and the second peak of each wave and rate of entry were assessed. Each bar represents the mean value derived from, 43 to 111 cells for T cells (FIG. 4A), and 52 to 91 cells for macrophages (FIG. 4E). Cytokine induction in T cells and macrophages was conducted as described in the methods section. The levels of cytokines, including IL-2, TNF-α, and IL-6 in the culture medium were assessed using ELISA kits for T cells (FIG. 4B, FIG. 4C, and FIG. 4D) and macrophages (FIG. 4F, FIG. 4G, and FIG. 4H), respectively. Each bar represents the mean±SEM. In all the graphs, *, **, and *** denote p-values of <0.05, 0.01, and 0.001, respectively. […]
as §1

T1 sequence (Q96D31 whole entry): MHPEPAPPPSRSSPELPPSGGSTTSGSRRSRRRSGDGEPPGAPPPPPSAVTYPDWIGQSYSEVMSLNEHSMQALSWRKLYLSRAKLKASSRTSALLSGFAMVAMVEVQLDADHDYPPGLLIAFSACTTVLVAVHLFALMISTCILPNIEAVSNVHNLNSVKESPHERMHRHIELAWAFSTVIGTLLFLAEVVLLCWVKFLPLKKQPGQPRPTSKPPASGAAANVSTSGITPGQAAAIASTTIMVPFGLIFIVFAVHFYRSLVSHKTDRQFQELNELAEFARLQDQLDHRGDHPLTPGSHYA

SOCE (CRAC channel [1]): notably reduced | second peak and rate of SOCE (CRAC channel [2]): significantly reduced | SOCE in macrophages (CRAC channel [3]): higher efficacy compared to Av
SMILES: CCNS(=O)(=O)c1ccc(COc2ccc3nc4ccc(=O)cc-4oc3c2)cc1 [WRG-28]
